Experimental data published in BindingDB's records for PubMed 38340508 (Biomedical Research Foundation of the Academy of Athens).

Assay: Inhibition of MYC in chicken embryonic fibroblasts assessed as reduction in transformed cell foci with repeated addition of compounds every second day and measured after 1 to 3 weeks by crystal violet staining based analysis

IC50: 3000 nM
SMILES: Cc1cc(N2CCCCC2)nc2ccc(Cc3ccc4nc(N5CCCCC5)cc(C)c4c3)cc12
